# Measurements published in US8377424B2, “Treatment of periodontal disease” (Mars, Incorporated, priority 1996, dated 2013).
# Experiments:
# [1] = Rancimat oxidative stability test of peanut oil; details: Rancimat 100° C., 20 cc/min air, control 10.5 ± 0.7
# Protocol: The procedures described in Examples 1, 2 and 3 were used to prepare cocoa extracts which were manipulated further to produce two fractions from gel permeation chromatography. These two fractions are actually combined fractions A through C, and D and E (See FIG. 1) whose antioxidant properties were compared against the synthetic antioxidants BHA and BHT.
# Peanut Oil was pressed from unroasted peanuts after the skins were removed. 50 μL of methanol solubilized antioxidant was added to each sample to aid in dispersion of the antioxidant. A control sample was prepared with 50 μL of methanol containing no antioxidant.
# The samples were evaluated in duplicate, for oxidative stability using the Rancimat stability test at 100° C. and 20 cc/min of air. Experimental parameters were chosen to match those used with the Active oxygen Method (AOM) or Swift Stability Test (Van oosten et al., 1981). Results are reported in Table 8 as hours required to reach a peroxide level of 100 meq.
# Helicobacter pylori = assay: Disk diffusion bioassay, H. pylori; format: cell-based; details: control disk containing 80 ug metronidazole
# Protocol: (§1) A study was conducted to evaluate the antimicrobial activity of procyanidin oligomers against Helicobacter pylori and Staphylococcus aureus. Pentamer enriched material was prepared as described in Example 13, Method A and analyzed as described in Example 14, Method C, where 89% was pentamer, and 11% was higher oligomers (n is 6 to 12). Purified pentamer (96.3%) was prepared as described in Example 14, Method D.
# (§2) Helicobacter pylori and Staphylococcus aureus were obtained from the American Type Culture Collection (ATCC). For H. pylori, the vial was rehydrated with 0.5 mL Trypticase Soy broth and the suspension transferred to a slant of fresh TSA containing 5% defibrinated sheep blood. The slant was incubated at 37° C. for 3 to 5 days under microaerophilic conditions in anaerobic jars (5 to 10% carbon dioxide; CampyPakPlus, BBL). When good growth was established in the pool of broth at the bottom of the slant, the broth was used to inoculate additional slants of TSA with sheep blood. Because viability decreased with continued subculturing, the broth harvested from the slants was pooled and stored at −80° C. Cultures for assay were used directly from the frozen vials. […]
# (§3) A cell suspension of each culture was prepared (H. pylori, 10^8 to 10^9 cfu/mL; S. aureus 10^6 to 10^7 cfu/mL) and 0.5 mL spread onto TSA plates with 5% sheep blood. […] Zones of inhibition were measured following outgrowth.
# Staphylococcus aureus = assay: Disk diffusion bioassay, S. aureus; format: cell-based; details: control disk containing 30 ug vancomycin
# Protocol: as §1, §2, §3
compound,measurement,setting,value
"Cc1cc(C(C)(C)C)c(O)c(C(C)(C)C)c1 [BHT, Butylated Hydroxytoluene]","Oxidative Stability of Peanut Oil, hours required to reach a peroxide level of 100 meq, average",[1]; 20 ppm,16.5 ± 2.1 h
same,"Oxidative Stability of Peanut Oil, hours required to reach a peroxide level of 100 meq, average",[1]; 100 ppm,12.5 ± 2.1 h
"Cc1ncc([N+](=O)[O-])n1CCO [Metronidazole, metronidazole]",H. pylori Inhibition,Helicobacter pylori,11 mm
"CN[C@H](CC(C)C)C(=O)N[C@H]1C(=O)N[C@@H](CC(N)=O)C(=O)N[C@H]2C(=O)N[C@H]3C(=O)N[C@H](C(=O)N[C@H](C(=O)O)c4cc(O)cc(O)c4-c4cc3ccc4O)[C@H](O)c3ccc(c(Cl)c3)Oc3cc2cc(c3O[C@@H]2O[C@H](CO)[C@@H](O)[C@H](O)[C@H]2O[C@H]2C[C@](C)(N)[C@H](O)[C@H](C)O2)Oc2ccc(cc2Cl)[C@H]1O [Vancomycin, vancomycin]",S. aureus Inhibition,Staphylococcus aureus,15 mm
